Data on 7 molecules can be found in patent US20030199431A1, “Modified peptide nucleic acid (PNA) molecules” (priority 1999, published 2003).

A word on the MIC: it is the lowest concentration that inhibits growth of the organism. The term MBC denotes the smallest concentration meeting the test's criterion for killing.

Converted amounts (≈) assume the structure as drawn. Read-outs that look alike come from different tables or passages of the source.

One assay has as its system E. coli K12. Type of assay: cell-based, Escherichia coli.
For assay [1], the system named is Staphylococcus aureus NCTC 8325. The arrangement: MIC: unit not given beside the values. The settings on record: S. aureus strain 8325.
Assay [2] has as its system S. aureus strain 700698R. The settings on record: S. aureus strain ATCC 700698R; additional 24 hours at 35° C.
The test system of assay [3] is S. aureus strain 700698. The arrangement: MIC: unit not given beside the values. The settings on record: S. aureus strain ATCC 700698.
Assay [4] relates to Escherichia coli K12 MG1655. Type of assay: cell-based. The settings on record: cultures with 10^4-10^1 cells/ml; 37° C., 16 hours. The source says: (§1) The bacterial growth assay is designed to identify modified PNA molecules that inhibit or completely abolish bacterial growth. Growth inhibition results from antisense binding of PNA to mRNA of the targeted gene. The compound tested is present during the entire assay.
(§2) The experimental bacterial strain used is Escherichia coli K12 MG1655 (E. coli Genentic Stock Center, Yale University, New Haven). The medium for growth is 10% sterile LB (Lurea Bertani) medium. E. coli test cells are pre-cultured in LB medium at 37° C. over night (over night culture). The screen is performed in 96-well microtiter plates at 37° C. with constant shaking. PNAs are dissolved in H2O as a 40×concentrated stock solution.
(§3) A fresh culture (test culture) is inoculated with an overnight culture and grown to mid-log-phase (OD600=0.1 corresponding to 10^7 cells/ml) at 37° C. The test culture is diluted stepwise in the range 10^5 to 10^1 with 10% LB medium. 195 μl of diluted culture and 5 μl of a 40×concentrated PNA stock solution are added to each test well. 96-well microtiter plates are incubated in a microplate scanning spectrophotometer at 37° C. under constant shaking. OD600 measurements are performed automatically every 3.19 minutes and recorded simultaneously.
The assay was performed as follows. […] PNA design no. 2

Assay [5] concerns Escherichia coli K12 MG1655. The format is cell-based. The settings on record: cultures with 10^4-10^1 cells/ml; 37° C., 16 hours.
Excerpt: as §1, §2, §3
The assay was performed as follows.
The source holds these as a separate data set.

The subject of assay [6] is Enterococcus faecium ATCC 51550. The settings on record: E. facium strain ATCC 51550.
For assay [7], the system named is Enterococcus faecium strain 8803. The settings on record: E. facium strain 8803.
For assay [8], the system named is Enterococcus faecium ATCC 700221. The settings on record: E. facium strain ATCC 700221.
For assay [9], the system named is S. aureus strain 700698R. The settings on record: S. aureus strain ATCC 700698R; characteristics of the strain; cited from earlier work.
Assay [10] relates to S. aureus strain 700698. The settings on record: S. aureus strain ATCC 700698; characteristics of the strain; cited from earlier work.
The test system of assay [11] is Staphylococcus aureus NCTC 8325. The settings on record: S. aureus strain 8325; characteristics of the strain; cited from earlier work.

“H-KFFKFFKFF-ado-JTJTJJT-ado-ado-ado-TCCCTCTC-Lys-NH2 [Example 5]”: the Bacterial growth inhibition result in the assay on E. coli K12 is reported as “− (key: +: Total inhibition of bacterial growth.; (+): Significantly extended lagphase, (more than five times); −: Lagphase extended less than five times;)”.

Consider `Cc1cn(CC(=O)N(CCNC(=O)CN(CCNC(=O)CN(CCNC(=O)CN(CCNC(=O)CN(CCNC(=O)CN(CCNC(=O)CN(CCNC(=O)COCCOCCNC(=O)C2CCC(CN3C(=O)CC(SC[C@H](NC(=O)[C@H](CCCCN)NC(=O)[C@H](CCCCN)NC(=O)[C@@H](NC(=O)[C@@H](NC(=O)[C@H](Cc4ccccc4)NC(=O)[C@H](CCCCN)NC(=O)[C@@H](NC(=O)[C@H](CCCCN)NC(=O)[C@H](Cc4ccccc4)NC(=O)[C@H](CCCCN)NC(=O)[C@@H](N)CCCCN)C(C)C)C(C)C)C(C)C)C(=O)O)C3=O)CC2)C(=O)Cn2cnc3c(N)ncnc32)C(=O)Cn2ccc(N)nc2=O)C(=O)Cn2cc(C)c(=O)[nH]c2=O)C(=O)Cn2cc(C)c(=O)[nH]c2=O)C(=O)Cn2cc(C)c(=O)[nH]c2=O)C(=O)Cn2cnc3c(=O)[nH]c(N)nc32)CC(=O)NCCN(CC(=O)NCCN(CC(=O)NCCN(CC(=O)NCCN(CC(=O)NCCN(CC(N)=O)C(=O)Cn2ccc(N)nc2=O)C(=O)Cn2ccc(N)nc2=O)C(=O)Cn2ccc(N)nc2=O)C(=O)Cn2cnc3c(=O)[nH]c(N)nc32)C(=O)Cn2ccc(N)nc2=O)c(=O)[nH]c1=O` (stereo partly drawn) [Example 24, H2N-KKFKVKFVVKKC-smcc-Ado-ACTTTGTCGCCC-NH2], for which the MIC (in [1]; in the assay on S. aureus strain 700698 [3]) was 800/1600 each time. Further, the minimum bactericidal concentration (MBC) in assay [1] (additional 24 hours at 35° C.) was 1.6 µM (≈ 8.07 µg/mL); in the assay on S. aureus strain 700698R [2], “≧1600 nM”; against S. aureus strain 700698 [3] (additional 24 hours at 35° C.) it was 1.6 µM (≈ 8.07 µg/mL).

As for “H-KFFKFFKFFK-ado-CACTGGAAATTT-Lys-NH2 [PNA 26]”, the “PNA concentration giving total inhibition of growth” value in assay [4] is “at least 2.5 μM”.

With “H-KFFKFFKFFK-ado-TTTCATCCGCTG-Lys-NH2 [PNA 14]”, the “PNA concentration giving total inhibition of growth” value in assay [5] was “at least 1.4 μM”.

For `CC[C@H](C)[C@H](NC(=O)[C@H](CCCCN)NC(=O)[C@H](CCCCN)NC(=O)[C@H](CC(C)C)NC(=O)[C@@H](NC(=O)[C@@H](NC(=O)[C@H](C)NC(=O)[C@@H](NC(=O)[C@H](CCCCN)NC(=O)[C@H](CCCCN)NC(=O)[C@@H](NC(=O)[C@H](CC(C)C)NC(=O)[C@@H](NC(=O)[C@@H](NC(=O)CNC(=O)[C@H](CC(C)C)NC(=O)[C@@H]1CCCN1C(=O)[C@H](C)NC(=O)[C@H](CC(C)C)NC(=O)[C@@H](NC(=O)[C@@H](N)CO)[C@@H](C)CC)[C@@H](C)O)[C@@H](C)O)C(C)C)C(C)C)[C@@H](C)O)[C@@H](C)O)C(=O)N[C@@H](Cc1ccccc1)C(=O)N[C@@H](CO)C(=O)N[C@@H](CCCCN)C(=O)N[C@@H](Cc1c[nH]c2ccccc12)C(=O)N[C@@H](CCCCN)C(=O)N[C@@H](CSC1CC(=O)N(CC2CCC(C(=O)NCCOCCOCC(=O)NCCN(CC(=O)NCCN(CC(=O)NCCN(CC(=O)NCCN(CC(=O)NCCN(CC(=O)NCCN(CC(=O)NCCN(CC(=O)NCCN(CC(=O)NCCN(CC(=O)NCCN(CC(=O)NCCN(CC(=O)NCCN(CC(N)=O)C(=O)Cn3cnc4c(N)ncnc43)C(=O)Cn3cc(C)c(=O)[nH]c3=O)C(=O)Cn3cc(C)c(=O)[nH]c3=O)C(=O)Cn3cc(C)c(=O)[nH]c3=O)C(=O)Cn3cnc4c(N)ncnc43)C(=O)Cn3ccc(N)nc3=O)C(=O)Cn3cnc4c(N)ncnc43)C(=O)Cn3cnc4c(N)ncnc43)C(=O)Cn3cc(C)c(=O)[nH]c3=O)C(=O)Cn3ccc(N)nc3=O)C(=O)Cn3cc(C)c(=O)[nH]c3=O)C(=O)Cn3cc(C)c(=O)[nH]c3=O)CC2)C1=O)C(=O)O` (stereo partly drawn) [Example 22], the minimal inhibitory concentration (MIC) in [6], in assay [7] and in assay [8] was below 0.4 µM throughout. Also, the MBC in assay [6] (additional 24 hours at 35° C.), in assay [7] (additional 24 hours at 35° C.) and in assay [8] (additional 24 hours at 35° C.) was below 0.4 µM throughout.

As for `CN[C@H](CC(C)C)C(=O)N[C@H]1C(=O)N[C@@H](CC(N)=O)C(=O)N[C@H]2C(=O)N[C@H]3C(=O)N[C@H](C(=O)N[C@H](C(=O)O)c4cc(O)cc(O)c4-c4cc3ccc4O)[C@H](O)c3ccc(c(Cl)c3)Oc3cc2cc(c3O[C@@H]2O[C@H](CO)[C@@H](O)[C@H](O)[C@H]2O[C@H]2C[C@](C)(N)[C@H](O)[C@H](C)O2)Oc2ccc(cc2Cl)[C@H]1O` [Vancomycin], the results for the “Vancomycin MIC” value (in the assay on S. aureus strain 700698R [9]; in the assay on S. aureus strain 700698 [10]; in assay [11]) were 11 µg/mL, 2 µg/mL and below 0.5 µg/mL, respectively.

In the case of “H-LLKKLAKALKG-ahex-ado-CCA TCT AAT CCT-NH2 [PNA 228]”, the Bacterial growth inhibition result with E. coli K12 is on record as “− (key: +: Total inhibition of bacterial growth.; (+): Significantly extended lagphase, (more than five times); −: Lagphase extended less than five times;)”.
